Test results published in patent US4883614A, “Phenyl substituted-2,4,6,8-nonatetraenoic acid” (Hoffman-La Roche Inc., priority 1986, dated 1989).
Like-named read-outs stand apart in the source and are kept apart here.

How the values were obtained:
adjuvant arthritis = experiment: chronic adjuvant arthritis test in rats (Table I); format: in vivo, male Charles River Lewis rats; details: for change in vivo at 95 µmol/kg / change in vivo at 3 µmol/kg: Rattus norvegicus, 552 h; for change in vivo at 3 µmol/kg: oral 3 μMol/Kg
Experimental: That the compounds of this invention are effective anti-arthritic agents can be seen from the results obtained when these compounds are administered to rats in accordance with the chronic adjuvant arthritis test system disclosed in Billingham and Davies "Handbook of Experimental Pharmacology" (editors J.R. Vane and S.H. Ferreira) Vol. 50/II, pg. 108-144, Springer-Verlag, Berlin, 1979).
In this procedure, adjuvant arthritis was induced by the subplantar injection on day o of 0.05 ml of adjuvant [a suspension of heat-killed, dessicated Mycobacterium butyricum, 0.5% (w/v), in heavy mineral oil containing 0.2% digitonin] into the right hind paw of male Charles River Lewis rats (120-140g) that were housed individually and given food and water ad lib. paw volumes (both hind paws) were measured immediately after injection of the adjuvant. paw Volumes were also measured, to follow the development of inflammation-induced swelling in the arthritic paws, at intervals of 3 to 7 days by immersion of the paw to the level of the lateral malleolus in a mercury plethysmograph.
Drugs were administered once a day (starting on the day of adjuvant injection) by […] using Tween 80 (polyoxyethylene sorbitan mono-oleate) at a dose of 0.25 ml/100 g body Weight as the vehicle. Arthritic control rats received daily doses of the vehicle only. On day 23-25, the rats were sacrificed, plasma collected and plasma fibrinogen levels determined (ammonium sulfate turbidimetric method) as described by Exner et al., Amer. J. Clin Path, 71:521-527 (1979). Anti-inflammatory activity of the test drugs were determined by comparing the extent of paw swelling (paw volume on a particular day, i.e. day four to day twenty-five, minus the paw volume on day 0) in drug-treated arthritic rats with the extent of paw swelling in the vehicle-treated arthritic rats. Drug induced decreases in the level of plasma fibrinogen. an acute phase protein that is elevated in the plasma of rats with adjuvant-induced arthritis, were also used to quantitate the anti-inflammatory activity.

[1] = system: adjuvant arthritis in the rat; experiment: developing adjuvant arthritis in the rat (Table III); format: in vivo, AHH/R female rats (PVG derived); details: 15 mg.kg^-1 p.o.
Experimental: Animals--AHH/R Female rats (PVG derived with an initial weight range of 110 to 140 g. were used.
Materials--Adjuvant for injection. An homogenized suspension of heat killed M. tuberculosis (Human strains C, DT and PN), 5 mg.Ml^-1 in liquid Paraffin was Prepared.
Method Rats were randomly split into groups of five and adjuvant arthritis was induced by the sub-plantar injection of 0.1 ml of adjuvant susPension into the right hind paw of each rat. Test compounds were administered by intubation each morning commencing the day of adjuvant injection. Two groups of control rats were dosed with the vehicle as was a group of three normal rats included for comparative purposes. Dosing was carried out daily until the end of the test on day 15 except for the first weekend (days 5 & 6). Treatment groups are shown in Table III and include etretinate as standard retinoid.
Measurements of right hind paw volume were made initially and on days 2 and 4 after and adjufant injection (primary phase). Right and left hind paw volume were then measured on day 8 and every two or three days until the end of the experiment on day 15 (secondary phase). At this time the mobility of each ankle joint and the
incidence and severity of secondary lesions on nose, ears, forepaws, left hind paw and tail were also assessed in terms of degrees of flexion possible and by using an arbitrary scoring system, respectively.
The time course curves for the injected paws were integrated from days 0 to 4 to reflect primary swelling and from days 8 to 15 (secondary swelling). The secondary swelling in the non-injected paw was integrated similarly from days 8 to 15. Calculations were carried out using a specific computer program which computed mean ± se for each integrated area. The significance of differences from controls was determined by Student s t test (2 tailed) and percentage reductions from control areas were calculated. Percentage improvements in joint mobility and percentage reductions in lesion score were also determined. In the latter case the Wilcoxon rank sum test (2 tailed) was used to express the difference from the control score using raw data. Mean body weight change in each group was recorded.

[2] = system: delayed hypersensitivity to methylated bovine serum albumin (MBSA); experiment: MBSA delayed hypersensitivity test (Table II)
Experimental: The dose volumes used were 5 ml.kg^-1 for rats and 10 ml.kg^-1 for mice. Controls were dosed with the appropriate volume of arachis oil vehicle.
Animals -- Male and female MFI mice substrain E33. Initial weight approximately 25 gm.
Materials -- Methylated bovine serum albumin (MBSA) (Sigma) Freunds complete adjuvant (Difco)
Method -- Groups of 10 mice were sensitized (day 0) by injecting intradermally at two abdominal. sites 0.05 ml. of a water in oil emulsion of MBSA and Freunds complete adjuvant. On day 9 the mice were challenged by injecting 20 l of a 1% MBSA solution to one paw and 20 l of water into the contralateral paw. Paw volumes were measured 24 hours later by mercury displacement plethysmography. The means percentage increase in paw volume of the MBSA-challenged paw compared with the water challenged paw was calculated for each treatment group. Dosing with vehicle and retinold commenced on day 0 and finished on day 9.

[3] = system: type II collagen arthritis; experiment: established type II collagen arthritis (Table IV); format: in vivo, male and female Alderley Park Strain 1 rats; details: 100 mg.kg^-1 p.o.; male and female rats
Experimental: In all tests, Compound A and the other retinoids tested concurrently were formulated in arachis oil containing 0.05% propylgallate as anti-oxidant. The dose volumes used were 5 ml.kg^-1 for rats and 10 ml.kg^-1 for mice. Controls were dosed with the appropriate volume of arachis oil vehicle.
Animals -- Male and female Alderley Park Strain 1 rats.
Materials -- Type 2 collagen (prepared from bovine nasal septum cartilage), Freunds incomplete adjuvant (Difco).
Method -- Rats were sensitized to type 2 collagen by injecting them intradermally with 1 ml. of a water in oil emulsion consisting of equal parts of a 1 mg.ml^-1 solution of type 2 collagen in 0.45M NaCl, 0.02M Tris, PH 7.4 and Freunds incomplete adjuvant. Rats developing arthritis were allocated on day 15 post sensitization to a control arachis oil treated group (6 male, 4 female) or to the Compound A treated group (6 male, 5 female). Hind paw volume measurements were taken to ensure even distribution of rats between groups. An overnight collection of urine was made on days 15/16 and dosing commenced on day 16. […] Compound A was dosed at 100 mg.kg^-1 p.o. On days 19/20 a second overnight collection of urine was made. […] On day 20 a second hind paw measurement was taken. Rats were then anaesthetised with sodium pentobarbitone, bled, killed and X-rays taken of hind and forepaws. Rats were dosed on days 16-19 inclusive (4 doses).

[4] = system: 4 hr carrageenan pleurisy; experiment: 4 hr carrageenan pleurisy, non-immune inflammation (Table V); format: in vivo, female Alderley Park Strain 1 rats; details: 10 days
Experimental: Animals -- Female Alderley Park Strain 1 rats weighing 170-205 g. at the start of the experiment were used.
Materials -- Lambda -carrageenan. Prepared as a solution in saline and sterilized by autoclaving.
Method -- Compound A was administered orally to groups of 8 rats once daily for 10 days at doses of 10, 30 and 100 mg.kg^-1. Control animals received the vehicle. One hour after the last dose the animals were anesthetised with methohexitone (Brietal, 50 mg.kg-1) and 0.2 ml of 1% lambda carrageenan was injected into the pleural cavity. Four hours later the animals were killed with an overdose of pentobarbitone (Sagatal), the pleural exudate was collected and the pleural cavity was washed out with 2 ml of phosphate-buffered saline (PB$-A, Oxoid). The exudate volume was recorded and cell counts were determined using an automatic cell counter (Coulter). Differential cell counts were performed on exudate smears stained with Giemsa stain in order to determine separately the numbers of polymorphonuclear leucocytes (PMN) and mononuclear cells (MN).
Immediately after recovery of the pleural exudates the tibiae of the animals were excised and their breaking strains were determined.
The body weights of the animals were recorded daily. Statistical analyses were performed using Student's two-tailed t test.
In the following table the dose is in mg per kg per day.

SMILES: CCCCCCCCCOc1ccccc1/C=C/C(C)=C/C=C/C(C)=C/C(=O)O [drawing 6]
- Body Weight Gain (adjuvant arthritis; oral 76 μMol/Kg): +27 g

SMILES: CC1=C(/C=C/C(C)=C/C=C/C(C)=C\C(=O)O)C(C)(C)CCC1 [reference compound]
- Body Weight Gain (adjuvant arthritis; oral 60 μMol/Kg): -7 g

SMILES: CC(/C=C/c1ccccc1OCCCCCCCCO)=C\C=C\C(C)=C\C(=O)O
- change in vivo at 95 µmol/kg (adjuvant arthritis; oral 95 μMol/Kg, read-out: % Reduction in Paw Volume On day 23, Left): -49%
- change in vivo at 95 µmol/kg (adjuvant arthritis; oral 95 μMol/Kg, read-out: % Reduction in Paw Volume On day 23, Right): -37%
- Body Weight Gain (adjuvant arthritis; oral 95 μMol/Kg): +27 g
- Plasma fibrinogen % change (reduction) (adjuvant arthritis; oral 95 μMol/Kg): -35%

SMILES: CCOC(=O)/C=C(C)/C=C/C=C(C)/C=C/c1c(C)cc(OC)c(C)c1C [Etretinate, etretinate]
- Joint Mobility (% INC) [1]: 50%
- Lesion Score (% RDN) [1]: 56%
- % reduction of paw swelling, Secondary (left) ([1]; days 8-15): 30%
- % reduction of paw swelling, Secondary (right) ([1]; days 8-15): 67%
- % (cf. arachis oil control) ([2]; 10 mg.kg^-1 oral, 10 doses): 46%
- Mean body weight ([2]; 10 mg.kg^-1 oral, female (F)): -2.0 g
- Mean body weight ([2]; 10 mg.kg^-1 oral, male (M)): -0.8 g

SMILES: CCCCCCCCCOc1cccc(Cl)c1/C=C/C(C)=C/C=C/C(C)=C/C(=O)O
- Body Weight Gain (adjuvant arthritis; oral 75 μMol/Kg): +35 g

SMILES: CCCCCCCCNc1ccccc1/C=C/C(C)=C/C=C/C(C)=C/C(=O)OCC
- Body Weight Gain (adjuvant arthritis; oral 75 μMol/Kg): +24 g

SMILES: COc1ccc2c(c1)c(CC(=O)O)c(C)n2C(=O)c1ccc(Cl)cc1 [Indomethacin, reference compound]
- change in vivo at 3 µmol/kg (adjuvant arthritis; read-out: % Reduction in Paw Volume On day 23, Left): -67%
- change in vivo at 3 µmol/kg (adjuvant arthritis; read-out: % Reduction in Paw Volume On day 23, Right): -66%

SMILES: CCCCCCCCCOc1ccc(OC)cc1/C=C/C(C)=C/C=C/C(C)=C/C(=O)O
- Body Weight Gain (adjuvant arthritis; oral 75 μMol/Kg): +27 g

SMILES: CCCCCCCCCOc1ccccc1/C=C/C(C)=C/C=C/C(C)=C/C(=O)O [Compound A, All(E)-9-[2-(nonyloxy)phenyl]-3,7-dimethyl-2,4,6,8-nonatetraenoic acid]
- weight during treatment (in words) [3]: Both male and female rats lost weight
- Tibial Breaking Strain (Right + Left) % change ([4]; 10 mg/kg/day p.o.): -3.4%
- Tibial Breaking Strain (Right + Left) Mean ([4]; 10 mg/kg/day p.o.): 6.5 kg
- Tibial Breaking Strain (Right + Left) % change ([4]; 30 mg/kg/day p.o.): +1.5%
- Tibial Breaking Strain (Right + Left) Mean ([4]; 30 mg/kg/day p.o.): 6.8 kg
- Tibial Breaking Strain (Right + Left) % change ([4]; 100 mg/kg/day p.o.): -0.3%
- Tibial Breaking Strain (Right + Left) Mean ([4]; 100 mg/kg/day p.o.): 6.7 kg
- Mean body weight ([2]; 10 mg.kg^-1 oral, female (F)): -0.2 g
- Mean body weight ([2]; 10 mg.kg^-1 oral, male (M)): 3.3 g
- Mean body weight ([2]; 30 mg.kg^-1 oral, female (F)): 0.5 g
- Mean body weight ([2]; 30 mg.kg^-1 oral, male (M)): 2.8 g
- Mean body weight ([2]; 100 mg.kg^-1 oral, female (F)): -0.2 g
- Mean body weight ([2]; 100 mg.kg^-1 oral, male (M)): 3.3 g

SMILES: CCCCCCCCCOc1cccc(F)c1/C=C/C(C)=C/C=C/C(C)=C/C(=O)O
- Body Weight Gain (adjuvant arthritis; oral 75 μMol/Kg): +46 g
